Source: patent US8846653B2, “Delta-tocotrienol treatment and prevention of pancreatic cancer” (University of South Florida, priority 2006, dated 2014)

Key:
Assay type in all cases: cell-based, human
[1] = test system: SW1990 pancreatic cancer cells; assay: MTS assay of SW1990 cultures, single 50 μM dose; settings: SW1990, 50 μM
How it was run: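 MTS-based viability was measured 24, 48 or 72 h after a single 50 μM treatment; the agents were α/β/γ/δ-tocotrienol, α/β-tocopherol, tocopherol succinate, geranylgeraniol or succinic acid. The cells were SW1990, cultured in 10% FBS DMEM. Vehicle (ethanol-extracted olive oil) cultures ran in parallel as reference.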

MiaPaCa-2 cells [2] = assay: MTS assay of MiaPaCa2 cultures, single 50 μM dose; settings: MiaPaCa2, 50 μM
How it was run: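 This MTS viability assay used MiaPaCa2 cultures treated once with 50 μM compound or vehicle, with an untreated culture grown in parallel for comparison. Cells were maintained in DMEM supplemented with 10% FBS, 1% penicillin-streptomycin and 1% L-glutamine at 37° C. under 5% CO2 and humidity.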

MiaPaCa-2 cells [3] = assay: MTT assay of MiaPaCa2 cultures, single 50 μM dose; parameters: rel amt (relative value set to the control): unit not given here; settings: MiaPaCa2, 50 μM; for MTT assay result, av-blank: average minus blank; for MTT assay result, av: average of 7 runs
How it was run: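 Viability measured by MTT 48 or 120 hours post-treatment, with a vehicle-only (ethanol-extracted olive oil) culture as control. MiaPaCa-2 cultures received one 50 μM exposure to a tocotrienol, tocopherol, tocopherol succinate, geranylgeraniol or succinic acid.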

Cc1c(C)c2c(c(C)c1O)CC[C@@](C)(CCC[C@H](C)CCC[C@H](C)CCCC(C)C)O2 [T alpha, alpha tocopherol]
rel amnt (relative value set to the control) ([1]; 24 hours): 122
MTS assay result, run 1 ([1]; 24 hours): 0.188
MTS assay result, run 2 ([1]; 24 hours): 0.183
MTS assay result, run 3 ([1]; 24 hours): 0.189
MTS assay result, run 4 ([1]; 24 hours): 0.166
MTS assay result, run 5 ([1]; 24 hours): 0.183
MTS assay result, run 6 ([1]; 24 hours): 0.181
MTS assay result, run 7 ([1]; 24 hours): 0.186
MTS assay result, run 8 ([1]; 24 hours): 0.16
MTS assay result, run 9 ([1]; 24 hours): 0.180
rel amnt (relative value set to the control) ([1]; 48 hours): 107
MTS assay result, run 1 ([1]; 48 hours): 0.172
MTS assay result, run 2 ([1]; 48 hours): 0.17
MTS assay result, run 3 ([1]; 48 hours): 0.16
MTS assay result, run 4 ([1]; 48 hours): 0.154
MTS assay result, run 5 ([1]; 48 hours): 0.154
MTS assay result, run 6 ([1]; 48 hours): 0.167
MTS assay result, run 7 ([1]; 48 hours): 0.18
MTS assay result, run 8 ([1]; 48 hours): 0.146
MTS assay result, run 9 ([1]; 48 hours): 0.163
rel amnt (relative value set to the control) ([1]; 72 hours): 103
MTS assay result, run 1 ([1]; 72 hours): 0.523
MTS assay result, run 2 ([1]; 72 hours): 0.478
MTS assay result, run 3 ([1]; 72 hours): 0.46
MTS assay result, run 4 ([1]; 72 hours): 0.453
MTS assay result, run 5 ([1]; 72 hours): 0.443
MTS assay result, run 6 ([1]; 72 hours): 0.456
MTS assay result, run 7 ([1]; 72 hours): 0.38
MTS assay result, run 8 ([1]; 72 hours): 0.451
MTS assay result, run 9 ([1]; 72 hours): 0.456
rel amt (relative value set to the control) (MiaPaCa-2 cells [2]; 24 hours): 111
MTS assay result, run 1 (MiaPaCa-2 cells [2]; 24 hours): 0.249
MTS assay result, run 2 (MiaPaCa-2 cells [2]; 24 hours): 0.25
MTS assay result, run 3 (MiaPaCa-2 cells [2]; 24 hours): 0.253
MTS assay result, run 4 (MiaPaCa-2 cells [2]; 24 hours): 0.207
MTS assay result, run 5 (MiaPaCa-2 cells [2]; 24 hours): 0.253
MTS assay result, run 6 (MiaPaCa-2 cells [2]; 24 hours): 0.238
MTS assay result, run 7 (MiaPaCa-2 cells [2]; 24 hours): 0.27
MTS assay result, run 8 (MiaPaCa-2 cells [2]; 24 hours): 0.254
MTS assay result, run 9 (MiaPaCa-2 cells [2]; 24 hours): 0.247
rel amt (relative value set to the control) (MiaPaCa-2 cells [2]; 48 hours): 86
MTS assay result, run 1 (MiaPaCa-2 cells [2]; 48 hours): 0.308
MTS assay result, run 2 (MiaPaCa-2 cells [2]; 48 hours): 0.313
MTS assay result, run 3 (MiaPaCa-2 cells [2]; 48 hours): 0.342
MTS assay result, run 4 (MiaPaCa-2 cells [2]; 48 hours): 0.269
MTS assay result, run 5 (MiaPaCa-2 cells [2]; 48 hours): 0.352
MTS assay result, run 6 (MiaPaCa-2 cells [2]; 48 hours): 0.277
MTS assay result, run 7 (MiaPaCa-2 cells [2]; 48 hours): 0.305
MTS assay result, run 8 (MiaPaCa-2 cells [2]; 48 hours): 0.339
MTS assay result, run 9 (MiaPaCa-2 cells [2]; 48 hours): 0.313
rel amt (relative value set to the control) (MiaPaCa-2 cells [2]; 72 hours): 103
MTS assay result, run 1 (MiaPaCa-2 cells [2]; 72 hours): 0.523
MTS assay result, run 2 (MiaPaCa-2 cells [2]; 72 hours): 0.478
MTS assay result, run 3 (MiaPaCa-2 cells [2]; 72 hours): 0.464
MTS assay result, run 4 (MiaPaCa-2 cells [2]; 72 hours): 0.453
MTS assay result, run 5 (MiaPaCa-2 cells [2]; 72 hours): 0.443
MTS assay result, run 6 (MiaPaCa-2 cells [2]; 72 hours): 0.456
MTS assay result, run 7 (MiaPaCa-2 cells [2]; 72 hours): 0.383
MTS assay result, run 8 (MiaPaCa-2 cells [2]; 72 hours): 0.451
MTS assay result, run 9 (MiaPaCa-2 cells [2]; 72 hours): 0.456
rel amt (relative value set to the control) (MiaPaCa-2 cells [3]; 48 hours): 95
MTT assay result, av-blank (MiaPaCa-2 cells [3]; 48 hours): 0.296
MTT assay result, av (MiaPaCa-2 cells [3]; 48 hours): 0.342
MTT assay result, run 1 (MiaPaCa-2 cells [3]; 48 hours): 0.365
MTT assay result, run 2 (MiaPaCa-2 cells [3]; 48 hours): 0.352
MTT assay result, run 3 (MiaPaCa-2 cells [3]; 48 hours): 0.339
MTT assay result, run 4 (MiaPaCa-2 cells [3]; 48 hours): 0.338
MTT assay result, run 5 (MiaPaCa-2 cells [3]; 48 hours): 0.35
MTT assay result, run 6 (MiaPaCa-2 cells [3]; 48 hours): 0.297
MTT assay result, run 7 (MiaPaCa-2 cells [3]; 48 hours): 0.35
rel amt (relative value set to the control) (MiaPaCa-2 cells [3]; 120 hours (5 days)): 89
MTT assay result, av-blank (MiaPaCa-2 cells [3]; 120 hours (5 days)): 1.604
MTT assay result, av (MiaPaCa-2 cells [3]; 120 hours (5 days)): 1.656
MTT assay result, run 1 (MiaPaCa-2 cells [3]; 120 hours (5 days)): 1.56
MTT assay result, run 2 (MiaPaCa-2 cells [3]; 120 hours (5 days)): 1.647
MTT assay result, run 3 (MiaPaCa-2 cells [3]; 120 hours (5 days)): 1.59
MTT assay result, run 4 (MiaPaCa-2 cells [3]; 120 hours (5 days)): 1.619
MTT assay result, run 5 (MiaPaCa-2 cells [3]; 120 hours (5 days)): 2.059
MTT assay result, run 6 (MiaPaCa-2 cells [3]; 120 hours (5 days)): 1.526
MTT assay result, run 7 (MiaPaCa-2 cells [3]; 120 hours (5 days)): 1.588
